The text below walks through data of patent US10137169B2, “Compositions and uses thereof” (FOLLICUM AB, priority 2011, dated 2018).

Test [1] has as its system Mice (C57BL/6). In words: In vivo study of hair growth effect in mice, hair growth score (Example B). Conditions: for day from which hair growth was evident / hair growth effect / Hair growth score, Mean: 60 nM s.c. on Days 1, 5 and 9; for hair growth effect: assessment to day 16; for Hair growth score, Mean: mean of 5 animals. On the set-up: Hair growth score / Hair growth score, Mean: scale not given here. The method, then: Mice (C57BL/6) were used at an age of 6 to 8 weeks.
• Selection of animals in telogen phase of hair growth. • Clipping of dorsal back of animals • Subcutaneous injection of test peptide/vehicle • Visual analysis: Percentage anagen induction; Mean hair growth score; Visual melanogenesis: • Histological analysis: Follicle count in subcutis; Morphometry for skin thickness. Treatment Groups • Animals were assigned randomly to treatment groups (see Table 3)
• Animals were administered the specified treatment on Days 1, 5 and 9 • Treatment were administered by subcutaneous injection into dorsal clipped skin Scoring Criteria • The effect of the treatments was observed and scored daily according to the criteria in Table 4

In test [2] the test system is Mice (C57BL/6). In words: Observation of melanogenesis / anagen induction, external and peeled skin (Example D). It is filed as in vivo. To be noted: 60 nM; for Black colour in peeled skin (day 16): animals out of 5; for % anagen induction**: with respect to black colour in peeled skin; for Black colour in peeled skin (day 16) / % anagen induction**: day 16; for % anagen induction*: with respect to external skin colour change from pink to black. From the text: (§1) Animals and treatments are as described above in Example B.
(§2) All animals were sacrificed on day 16.
Following completion of the term of hair growth assessment for Example B, the animals were euthanized and dorsal skin peeled and removed for observation of the internal surface.
The hair growth cycle consists of three phases: a resting telogen phase (C57BL/6 skin is a pale pink colour), an active hair growth anagen phase (where the skin becomes dark gray or black), and finally a catagen phase (where hair growth stops, and the skin transitions back to the telogen phase, returning to a pale pink colour).
(§3) In the present study, the animals were preselected for pink skin (telogen phase) and the test polypeptide was administered by subcutaneous/topical route. A good hair growth promoter triggers the transition from the resting telogen phase to the active anagen phase, and thus a transition from light skin to dark skin. This dark pigmentation may result from the collection of melanin in the hair follicles, in preparation for new hair growth during the anagen phase. Melanin synthesis of follicular melanocytes is strictly coupled to the anagen phase, ceases during catagen and is absent in telogen phase. […] Upon termination, the dorsal skin of the animals was then excised out by peeling and the peeled skin reversed and observed for the induction of melanogenesis indicated by visual blackening. […] A good hair growth promoter increases no. of follicles in sub cutis and skin thickness.

The subject of test [3] is Mice (C57BL/6). In words: Histological analysis of peeled skin: follicle count in subcutis and skin thickness (Example D). Conditions: Mean ± sem, day 16, 60 nM. Set-up: Skin thickness: unit not given here. It is filed as in vivo. The method, then: as §1, §2
Peeled skin sections were prepared for histological analysis as described in Example A. Follicle count in the subcutis and skin thickness were then measured.
as §3

Test [4] concerns male wtC57BL/6N mice. In words: In vivo study of hair follicle density in mouse skin after intracutaneous injection (Example A). To be noted: data not shown. The text has this: The modified osteopontin polypeptide sequence SEQ ID NO:1 was cloned into a pCEP4 expression vector by the use of XhoI and BamHI restriction enzyme sites. The pCEP4 expression vector contains an ampicillin resistance gene for expression in bacteria and a hygromycin resistance gene for expression in eukaryotic EBNA cells. The polypeptide containing vector were transformed into competent XL-10 bacteria cells, multiplied and isolated with Qiagen midi prep kit. Isolated vectors were then transfected into human EBNA cells by the use of Fugene transfection reagent according to manufacture protocol (Invitrogen).
Medium from EBNA cell culture containing the produced polypeptide were collected after three to four days of culture. Polypeptides produced by pCEP4 plasmid contain an inserted His-tag, which is used to facilitate the isolation with Ni-sepharose gel chromatography (Invitrogen). Collected medium was diluted with binding buffer (20 mM sodium phosphate, 500 mM sodium chloride, pH 7.8), Ni-sepharose suspension was added before incubation on shaker overnight at 4° C. […]
Protocol for Hematoxylin-staining of paraffin-embedded sections of Group 1 1. […] Mount slide using Permount and coveslip. a) the time depends on the type of hematoxylin used, 20 sec to 10 min (which can be determined by the use of test slides) b) filtrated before use Results

Test [5] relates to Mice (C57BL/6). In words: In vivo study of hair growth effect in mice of the wildtype osteopontin fragment (Example C). On the set-up: Hair growth score, Mean: scale not given here. To be noted: for Hair growth score, Mean: mean of 6 animals. Here is the method: Animals, as described above in Example B, were treated as described in Table 6:
• This sequence is a fragment of wildtype mouse osteopontin, and corresponds to the region of the protein from which “FOL-004” is derived (i.e. “FOL-004” is a mutated version of wildtype fragment “FOL-001”). • Animals were administered the specified treatment on Days 1, 5 and 9 • Treatment were administered by subcutaneous injection into dorsal clipped skin Scoring Criteria • The effect of the treatments was observed and scored daily as described in Example B. Results

Entries after “also recorded” stand apart in the source; their conditions may differ.

On to “VDTYDGDISVVYGLR (Preferred 15-amino acid peptide) [FOL-005]”, for which, in test [1], the “day from which hair growth was evident” value was determined as 5 days. For the same substance, in test [1], the “hair growth effect” value is reported as “rapid hair growth; also recorded: particular fast onset of action”. For the same substance, the “Hair growth score, Mean” value in test [1] (Day 1) stood at 0.0; in test [1] (Day 2) it was 0.0; in test [1] (Day 5) it was 1.3; in test [1] (Day 6), 1.7; in test [1] (Day 7) it was 1.9; in test [1] (Day 8), 2.1. For the same substance, the “Hair growth score, Mean” value in test [1] (Day 9) is recorded as 2.3; in test [1] (Day 12), 2.7; in test [1] (Day 13), 2.8; in test [1] (Day 14), 2.8; in test [1] (Day 15), 3.0; in test [1] (Day 16), 3.0. The substance further returned a Hair growth score in test [1] (Day 5, individual animal, 60 nM, 25 μl s.c. on Days 1, 5 and 9) of 2.0. Further, in test [2], the “No. of animals showing hair growth” value was 5/5. The “Skin colour (external)” value in test [2] is “Black”. For the same substance, the “Skin colour (external): animals with this colour” value in test [2] is recorded as “(5/5 animals)”. In test [2], the “Black colour in peeled skin (day 16)” value was 3/5. Besides, in test [2], the “% anagen induction**” value is listed as 60%. Also, the “% anagen induction*” value in test [2] is recorded as 100%. In addition, the “Follicle count in subcutis (no.)” value is 34.80 ± 14.58 no in test [3] (all animals) and 58 ± 14.58 no in test [3] (animals in anagen only). Also, the Skin thickness in test [3] (all animals) and in test [3] (animals in anagen only) was 348.80 ± 40.05 throughout.
With “VDVPNGDISLAYGLR (Preferred 15-amino acid peptide (FOL-004))”, the “day from which hair growth was evident” value in test [1] came to 5 days. Further, the “hair growth effect” value in test [1] is recorded as “rapid hair growth; also recorded: particular fast onset of action”. Further, the “Hair growth score, Mean” value in test [1] (Day 1) amounted to 0.0; in test [1] (Day 2), 0.0; in test [1] (Day 5), 1.7; in test [1] (Day 6) it was 2.1; in test [1] (Day 7), 2.4; in test [1] (Day 8), 2.5. Further, the “Hair growth score, Mean” value in test [1] (Day 9) is 2.6; in test [1] (Day 12) it was 2.7; in test [1] (Day 13) it was 2.7; in test [1] (Day 14), 2.7; in test [1] (Day 15), 2.9; in test [1] (Day 16) it was 3.0. Also, the “No. of animals showing hair growth” value in test [2] is 5/5. Besides, the “Skin colour (external)” value in test [2] is “Black”. Besides, in test [2], the “Skin colour (external): animals with this colour” value is given as “(5/5 animals)”. The “Black colour in peeled skin (day 16)” value in test [2] is 1/5. Moreover, the “% anagen induction**” value in test [2] is listed as 20%. The “% anagen induction*” value in test [2] turned out to be 100%. The “Follicle count in subcutis (no.)” value in test [3] (all animals) is recorded as 6.20 ± 5.80 no; in test [3] (animals in anagen only) it was 29 ± 5.8 no. Moreover, the Skin thickness in test [3] (all animals) and in test [3] (animals in anagen only) was 312.2 ± 15.60 throughout.
With “wildtype mouse osteopontin: wildtype mouse osteopontin protein, comparator in Example A”, the “effect on hair growth” value in test [4] is given as “no detectable effect on hair growth”.
For the substance “VDVPNGRGDSLAYGLR (FOL-001) [fragment of wildtype mouse osteopontin, region from which FOL-004 is derived]”, the “day at which hair growth effect became evident” value in test [5] (60 nM s.c. on Days 1, 5 and 9) was around 9 days. Further, the “hair growth effect” value is listed as “delayed but detectable hair growth effect” in test [5] (60 nM s.c. on Days 1, 5 and 9); “delayed onset of hair growth stimulation” in test [5] (60 nM s.c. on Days 1, 5 and 9, listed as equivalent non-mutated wild type sequence). For the same substance, in test [5] (60 nM s.c. on Days 1, 5 and 9), the “plateau of hair growth score” value is “about 1.3”. The “Hair growth score, Mean” value in test [5] (Day 1, 60 nM s.c. on Days 1, 5 and 9) was determined as 0; in test [5] (Day 2, 60 nM s.c. on Days 1, 5 and 9), 0; in test [5] (Day 5, 60 nM s.c. on Days 1, 5 and 9), 0.17; in test [5] (Day 6, 60 nM s.c. on Days 1, 5 and 9), 0.17; in test [5] (Day 7, 60 nM s.c. on Days 1, 5 and 9) it was 0.17; in test [5] (Day 8, 60 nM s.c. on Days 1, 5 and 9), 0.17. Further, the “Hair growth score, Mean” value in test [5] (Day 9, 60 nM s.c. on Days 1, 5 and 9) is given as 0.58; in test [5] (Day 12, 60 nM s.c. on Days 1, 5 and 9) it was 1.17; in test [5] (Day 13, 60 nM s.c. on Days 1, 5 and 9) it was 1.17; in test [5] (Day 14, 60 nM s.c. on Days 1, 5 and 9) it was 1.33; in test [5] (Day 15, 60 nM s.c. on Days 1, 5 and 9) it was 1.33. Also, in test [5] (hair growth score), the “maximum effect relative to that observed with FOL-004” value is on record as “less than 50%”.
